Test [1] has as its system rat vagina. Briefly: Histological evaluation of epithelium, lamina propria and muscularis in the seven rat vaginal segments. The format is in vivo. Particulars: OVX rats, 36 wk. The source says: The animals were housed individually and were allowed free access to water and rodent food (Lab Diet 5002, Ralston Purina, St-Louis, Mo.).
(§1) Animals from the intact and OVX control groups received the vehicle alone.
(§2) Twenty-four hours after the last dosing, overnight fasted animals were sacrificed under isoflurane anesthesia by exsanguination at the abdominal aorta (9 animals per group) or by intracardiac perfusion with 10% neutral buffered formalin (5 animals per group). Vaginae from non-perfused animals were collected and weighed, while the vaginae collected from perfused animals were marked with black ink on the ventral side, and then trimmed as described below.
(§3) The entire vagina of each perfused animal was post-fixed in 10% neutral buffered formalin.
The degree of compactness of collagen fibers in the vagina was categorized as low, moderate and high (FIGS. 6A-6C, respectively), as observed in the area proximal to the epithelium. <<Low>> and <<moderate compactness>> were associated with the presence of coarse collagen fibers loosely or less loosely aggregated together, respectively, while <<high compactness>> was the term used to describe tightly packed fine collagen fibers, displaying a smooth, textured appearance. In all the animals, there were relatively few fibrocytes in proportion to the amount of collagen, and they appeared predominantly flattened and shrunken.

Test [2] relates to rat vagina. Briefly: Vaginal weight after 36 weeks of treatment. The format is in vivo. Particulars: OVX rats, 36 wk, versus OVX.
From the text: as §1, §2
(§4) Data are presented as means±SEM of 8-9 animals per group for vaginal weight or 5 animals per group for vaginal layer thickness determinations. Statistical significance was determined according to the multiple-range test of Duncan-Kramer (Kramer, 1956, Biometrics, 12: 307-310).

In another test the test system is AR. In words: Immunohistochemistry of AR in fifth vaginal segment. The format is in vivo, rat. The conditions noted are these: OVX rats, 36 wk. Here is the method: as §1
(§5) Immunostaining was performed using Zymed SP kits (San Francisco, Calif.). Paraffin sections (4 μm) were deparaffinized in toluene and rehydrated through ethanol. Endogenous peroxidase activity was eliminated by preincubation with 3% H2O2 in methanol for 30 min. A microwave retrieval technique using citrate buffer (Tacha and Chen, 1994) was applied. After cooling the slides, non-specific binding was blocked using 10% goat serum for 20 min. Sections were then incubated for 1.5 h at room temperature with ERα (AB-1, Calbiochem, California), AR (N-20, Santa Cruz Biotechnology, California) or PR (Ab-4, NeoMarkers, California) antibodies, at 1:200, 1:250 and 1:250 respectively. After washing in PBS buffer, sections were incubated with biotinylated anti-rabbit secondary antibody for 10 min and thereafter with streptavidin-peroxidase for another 10 min. Diaminobenzidine was used as the chromogen to visualize the biotin/streptavidin-peroxidase complex, under microscope monitoring. Counterstaining was performed using #2 Gill's hematoxylin for 30 sec. For controls, immunoabsorption with an excess of the peptide used to raise the antibody, or substitution with non immune rabbit IgG, was performed.

In test [3] the test system is rat vagina. Briefly: Histomorphometry: thickness of vaginal layers at the fifth segment. In kind it is in vivo. Particulars: OVX rats, 36 wk, fifth segment, mean±SEM.
From the text: as §1, §2, §3
Measurements of the different vaginal layers were performed on the fifth segment (FIG. 1), which is approximately halfway between the middle region and the portio vaginalis uteri (segment 7). […] Images were captured with a DC-330 3CCD color camera (Dage-MTI, Michigan City, Ind., USA) and quantified using Image-Pro Plus 3.0 software (Media Cybernetics, Silver Spring, Md., USA). Thus, using a ×5 objective (Leica Microsystems, Willowdale, Ont., Canada), 3 to 4 thickness measurements per layer were obtained from representative areas of the epithelium and muscularis, and for the three vaginal layers together. The total vaginal thickness, the thickness of the epithelium and the thickness of the muscularis were thus measured. The thickness of the lamina propria was obtained by subtracting the thickness of the epithelium and muscularis from total vaginal thickness.
as §4

Test [4] deals with rat vagina. In words: Comparison of SERMs: vaginal epithelium morphology in the OVX rat (Example 2). The conditions noted are these: OVX rats, 0.5 mg/kg oral daily.
Description: Ten to twelve week-old female Sprague-Dawley rats (Crl:CD(SD)Br) (Charles River Laboratory, St-Constant, Canada) weighing 215-265 g at time of ovariectomy were used. The animals were housed individually in an environmentally-controlled room (temperature: 22±3° C.; humidity: 50±20%; 12-h light-12-h dark cycles, lights on at 07:15 h). The animals were allowed free access to tap water and a certified rodent feed (Lab Diet 5002 (pellet), Ralston Purina, St-Louis, Mo.).
Different experiments were performed: two 20-day and two 8-month studies. In each of the two first experiments, the animals were randomly distributed between 3 groups of 13 or 14 animals as follows: 1) Intact control; 2) Ovariectomized (OVX) control; 3) OVX+raloxifene (0.5 mg/kg), or, 3) OVX+LY 363381 (0.5 mg/kg). […] In the other 8-month study, the animals were randomly distributed between 3 groups of 10-11 animals as follows: 1) Intact control; 2) Ovariectomized (OVX) control; 3) OVX+lasofoxifene (0.5 mg/kg). […] The tested compounds were then given once daily by oral gavage as a suspension in 0.4% methylcellulose (0.5 ml/rat) from day 1 to day 20 of the study or from day 1 to week 32 of the study.
Twenty-four hours after the last dosing, the animals were sacrificed under isoflurane anesthesia by exsanguination. The vaginae were collected and immersed in 10% neutral buffered formalin immediately after resection. […] The segments were then routinely processed and embedded in paraffin blocks. When appropriate, all the segments were positioned in the paraffin block in a sequence corresponding to their original anatomical position and oriented perpendicular to the surface of the block, thus allowing the segments to be cut in cross-sections. For each animal, a 4 μm-thick paraffin section was cut and stained with haematoxylin-eosin for morphological examination.
The test system of the next test is PR. In words: Immunohistochemistry of PR in fifth vaginal segment. The format is in vivo, rat. Particulars: OVX rats, 36 wk. The method, then:
as §1, §5

The next test relates to estrogen receptor. Briefly: Testing of antiestrogens for SERM function.
Setting [5] is: Acolbifene 2.5, Premarin 0.5 mg/kg oral, DHEA 80 mg/kg dorsal skin, segment 1.

Counter-ions that a name gives are not always drawn.

Consider `CC1=C(c2ccc(O)cc2)[C@H](c2ccc(OCCN3CCCCC3)cc2)Oc2cc(O)ccc21.Cl` [Acolbifene], for which the “compactness of collagen fibers (lamina propria)” value in the test with rat vagina [1] (setting [5]) is given as “M-M”. Also, the lamina propria thickness result in the test with rat vagina [1] (setting [5]) was “M-M”; in the test on rat vagina [3] (total minus epithelium and muscularis, OVX 76±2, intact 135±28), 60±8 μm. Further, the epithelium morphology result is on record as “SCM-A” in the test with rat vagina [1] (Acolbifene 2.5, Premarin 0.5 mg/kg oral, DHEA 80 mg/kg dorsal skin, segment 2); “SCM-A” in the test with rat vagina [1] (Acolbifene 2.5, Premarin 0.5 mg/kg oral, DHEA 80 mg/kg dorsal skin, segment 3); “SCM-A” in the test on rat vagina [1] (Acolbifene 2.5, Premarin 0.5 mg/kg oral, DHEA 80 mg/kg dorsal skin, segment 4); “SCM-A” in the test with rat vagina [1] (Acolbifene 2.5, Premarin 0.5 mg/kg oral, DHEA 80 mg/kg dorsal skin, segment 5); “SCM-A” in the test with rat vagina [1] (Acolbifene 2.5, Premarin 0.5 mg/kg oral, DHEA 80 mg/kg dorsal skin, segment 6); “SCM-A” in the test with rat vagina [1] (Acolbifene 2.5, Premarin 0.5 mg/kg oral, DHEA 80 mg/kg dorsal skin, segment 7). Also, in the test with rat vagina [1] (OVX controls 4-6 layers), the “epithelium thickness of segment 1 (external opening)” value was 9-11 cell layers. For the same compound, in the test with rat vagina [1] (moderate to severe inflammation in all OVX animals), the “animals showing signs of minimal inflammation” value is recorded as “three out of five”. Further, in the test with rat vagina [2], the “effect on vaginal weight” value is listed as “no effect”. In addition, the “AR: labeling intensity” value in the test on AR (epithelium) is listed as “++”; with AR (lamina propria) it was “+++”; in the test on AR (muscularis), “+++”. Besides, the “AR: semi-quantitative evaluation of labeled nuclei” value with AR (epithelium) stood at 2; in the test with AR (lamina propria) it was 1; with AR (muscularis), 1. In addition, the “total vaginal wall thickness” value in the test on rat vagina [3] (OVX 128±3, intact 262±39) was 108±8 μm. In addition, the “mucous cell layer(s) overlying the basal cell layer, middle of the vagina” value with rat vagina [4] (8-month study) was “one”. In addition, the “PR: semi-quantitative evaluation of labeled nuclei” value with PR (epithelium), with PR (lamina propria) and with PR (muscularis) was 0 throughout.

For `COc1ccc(-c2sc3cc(O)ccc3c2Oc2ccc(OCCN3CCCCC3)cc2)cc1` [Arzoxifene], the “function as SERM” value in the test on estrogen receptor is reported as “found to function as SERMs”.

`CC/C(=C(/c1ccc(OCCN(C)C)cc1)c1cccc(O)c1)c1ccccc1` [Droloxifene]: the “function as SERM” value in the test on estrogen receptor is recorded as “found to function as SERMs”.

Regarding `CC1=C(c2ccc(OC(=O)C(C)(C)C)cc2)[C@H](c2ccc(OCCN3CCCCC3)cc2)Oc2cc(OC(=O)C(C)(C)C)ccc21` [EM-800], the “function as SERM” value in the test with estrogen receptor was “found to function as SERMs”.

Take `Cc1c(-c2ccc(O)cc2)n(Cc2ccc(OCCN3CCCCC3)cc2)c2ccc(O)cc12` [ERA-923]: in the test with rat vagina [4] (8-month study), the “mucous cell layer(s) overlying the basal cell layer, middle of the vagina” value is “one”.

As for `CC/C(=C(\c1ccccc1)c1ccc(/C=C/C(=O)O)cc1)c1ccccc1` [GW-5638], in the test with estrogen receptor, the “function as SERM” value was “found to function as SERMs”.

For `C[C@]12CC[C@@H]3c4ccc(O)cc4C[C@@H](CCCCCCCCC[S+]([O-])CCCC(F)(F)C(F)(F)F)[C@H]3[C@@H]1CC[C@@H]2O` (stereo partly shown) [ICI 182,780], the “function as SERM” value in the test with estrogen receptor is on record as “found not to function as SERM”.

As to `COc1ccc(-c2sc3cc(O)ccc3c2Oc2ccc(OCCN3CCCCC3)cc2)cc1` [LY 363381], the “mucous cell layer(s) overlying the basal cell layer, middle of the vagina” value with rat vagina [4] (20-day study) was “many”.

For `O=C(c1ccc(OCCN2CCCCC2)cc1)c1c(-c2ccc(O)cc2)sc2cc(O)ccc12` [Raloxifene], the “mucous cell layer(s) overlying the basal cell layer, middle of the vagina” value with rat vagina [4] (20-day study) is “many”. In the test with estrogen receptor, the “function as SERM” value is “found to function as SERMs”.

Regarding `Cc1c(-c2ccc(O)cc2)n(Cc2ccc(OCCN3CCCCCC3)cc2)c2ccc(O)cc12` [TSE-424], in the test with rat vagina [4] (8-month study), the “mucous cell layer(s) overlying the basal cell layer, middle of the vagina” value is listed as “one”. In addition, in the test with estrogen receptor, the “function as SERM” value is “found to function as SERMs”.

For the compound `CC/C(=C(\c1ccccc1)c1ccc(OCCN(C)C)cc1)c1ccccc1` [Tamoxifen, (Z)-2-[4-(1,2-diphenyl-1-butenyl)]-N,N-dimethylethanamine], the “function as SERM” value in the test on estrogen receptor is recorded as “found to function as SERMs”.

`Oc1ccc2c(c1)CC[C@H](c1ccccc1)[C@@H]2c1ccc(OCCN2CCCC2)cc1` [lasofoxifene, (−)-cis-(5R,6S)-6-phenyl-5-[4-(2-pyrrolidin-1-ylethoxy)phenyl]-5,6,7,8-tetrahydronaphthalen-2-ol, D-(−)-tartrate salt]: the “mucous cell layer(s) overlying the basal cell layer, middle of the vagina” value in the test on rat vagina [4] (8-month study) is on record as “many”. Also, the “function as SERM” value in the test on estrogen receptor is listed as “found to function as SERMs”.

Source of the values: patent US10076525B2, “Sex steroid precursors alone or in combination with selective estrogen receptor modulators for the prevention and treatment of dyspareunia in postmenopausal women” (ENDORECHERCHE, INC., priority 2004, dated 2018).
